Data taken from ChEMBL document CHEMBL1156316, “Sterol effect on interaction between amphidinol 3 and liposomal membrane as evidenced by surface plasmon resonance” (Bioorg Med Chem Lett, 2010).

What was measured:
Lipid bilayer [1] = assay: Binding affinity to synthetic palmitoyl-oleoyl-phosphatidylcholine liposome at 10 uM by surface plasmon resonance assay
Lipid bilayer [2] = assay: Binding affinity to synthetic palmitoyl-oleoyl-phosphatidylcholine liposome at 10 uM by surface plasmon resonance assay in presence of 5% cholesterol
Lipid bilayer [3] = assay: Binding affinity to synthetic palmitoyl-oleoyl-phosphatidylcholine liposome at 10 uM by surface plasmon resonance assay in presence of 5% ergosterol
Lipid bilayer [4] = assay: Binding affinity to synthetic palmitoyl-oleoyl-phosphatidylcholine liposome assessed as association constant for compound- PPC liposome reorientation complex at 10 uM by surface plasmon resonance assay
Lipid bilayer [5] = assay: Binding affinity to synthetic palmitoyl-oleoyl-phosphatidylcholine liposome assessed as association constant for compound- PPC liposome reorientation complex at 10 uM by surface plasmon resonance assay in presence of 5% cholesterol
Lipid bilayer [6] = assay: Binding affinity to synthetic palmitoyl-oleoyl-phosphatidylcholine liposome assessed as association constant for compound- PPC liposome reorientation complex at 10 uM by surface plasmon resonance assay in presence of 5% ergosterol
Lipid bilayer [7] = assay: Binding affinity to synthetic palmitoyl-oleoyl-phosphatidylcholine liposome assessed as overall equilibrium association constant at 10 uM by surface plasmon resonance assay
Lipid bilayer [8] = assay: Binding affinity to synthetic palmitoyl-oleoyl-phosphatidylcholine liposome assessed as overall equilibrium association constant at 10 uM by surface plasmon resonance assay in presence of 5% cholesterol
Lipid bilayer [9] = assay: Binding affinity to synthetic palmitoyl-oleoyl-phosphatidylcholine liposome assessed as overall equilibrium association constant at 10 uM by surface plasmon resonance assay in presence of 5% ergosterol

## C=C/C=C/CC/C=C/C=C/C=C/CC/C=C/[C@@H](O)[C@@H](O)C1O[C@@H]([C@H](O)[C@H](O)C(=C)CCC(O)[C@H]2C[C@@H](O)[C@@H](O)C([C@@H](O)[C@H](O)/C=C(\C)CC[C@H](O)C[C@H](O)[C@@H](O)[C@@H](C)C[C@H](O)[C@@H](O)CCCCCC(O)CCC[C@@H](O)/C=C/C[C@@H](O)/C=C/C[C@H](O)CO)O2)CC(O)C1O (some centres undefined)
Lipid bilayer [1]
  KA: 0.901 10^3/M
Lipid bilayer [2]
  KA: 180 10^3/M
Lipid bilayer [3]
  KA: 143 10^3/M
Lipid bilayer [4]
  KA: 0.93 10^3/M
Lipid bilayer [5]
  KA: 3.92 10^3/M
Lipid bilayer [6]
  KA: 28.6 10^3/M
Lipid bilayer [7]
  KA: 0.764 10^3/M
Lipid bilayer [8]
  KA: 721 10^3/M
Lipid bilayer [9]
  KA: 3970 10^3/M
